The text below walks through data of US12649980B2, “Three-dimensional surface for protein and small molecule microarrays” (The Johns Hopkins University, priority 2019, dated 2026).

One test relates to HCC1954. The test is described as follows: Alamar blue cell proliferation assay, HCC1954. The class given is cell-based, human. To be noted: HCC1954, 72 h; read-out: IC50 Assay B (Alamar blue cell proliferation). How it is done:
(§1) The effects of RgA on cell growth, survival, and cell death was then determined. […] Treatment with 5 μM of RgA caused an increase in G1 phase by approximately 23% in comparison to control and approximately 7% and 17% decreases in cells in S and G2/M phases, respectively. The induction in G1 phase cell cycle arrest by RgA is dose-dependent (FIG. 5A, FIG. 16). […] Jones and Thompson, Genes Dev. 2009, 23, 537-548. […] The IC50 values of RgA against several human cancer cell lines also was determined using the alamar blue cell proliferation assay.
(§2) Cells were seeded into a 96-well plate (Costar) in 180 μL culture media. After an overnight recovery, drugs were added and incubated for 72 h. After drug incubation, cells were added with 20 μL of alamar blue reagent and the plates were incubated at 37° C. for 6 h before reading the fluorescence (544 nm Ex/590 nm Em) with a plate reader. GraphPad Prism (v4.03) software was used to determine IC50 values using a four parameter logistic regression.

A further test concerns Jurkat T. As to the kind of experiment: Alamar blue cell proliferation assay, Jurkat T. The class given is cell-based, human. As to conditions: 72 h, read-out: IC50 Assay B (Alamar blue cell proliferation). On the procedure: as §1, §2
Another test has as its system RKO. As to the kind of experiment: Alamar blue cell proliferation assay, RKO. The class given is cell-based, human. To be noted: 72 h, read-out: IC50 Assay B (Alamar blue cell proliferation). How it is done: as §1, §2
In general terms: Resazurin is reduced to fluorescent resorufin, in cell work by metabolically active cells.

The subject of test [1] is sealed erythrocyte membranes. As to the kind of experiment: [3H]-2DG uptake in purified sealed erythrocyte membranes. The class given is cell-based, human. As to conditions: read-out: IC50 [3H]-2DG uptake into sealed erythrocyte membranes. How it is done: To determine which of the 17 rapafucin hits inhibited the transporter activity of GLUT1, an orthogonal glucose uptake assay using 2-deoxy-D-[3H] glucose ([3H]-2DG), a nonhydrolyzable, radioactive glucose analog, was employed. Each hit was separately incubated with A549 cells for 10 min before the amount of [3H]-2DG taken up by the cells was measured using scintillation counting. […] The effect of JW11-D2 on uptake of [3H]-2DG in human red blood cells that exclusively express GLUT1 was then determined. Helgerson and Carruthers, J. Biol. Chem. 1987, 262, 5464-5475. […] To further improve the potency of JW11-D2, a structure-activity relationship (SAR) study was performed by synthesizing 21 new analogs of JW11-D2 using different amino acid building blocks.

In another test the target is T1, GLUT1 (Homo sapiens, UniProt P11166).
T1 construct: The full-length human SLC2A1, SLC2A3, and SLC2A4 genes were PCR amplified and inserted into pLenti6M vector 2; expressed in transfected cells
T1 sequence (P11166 1-492): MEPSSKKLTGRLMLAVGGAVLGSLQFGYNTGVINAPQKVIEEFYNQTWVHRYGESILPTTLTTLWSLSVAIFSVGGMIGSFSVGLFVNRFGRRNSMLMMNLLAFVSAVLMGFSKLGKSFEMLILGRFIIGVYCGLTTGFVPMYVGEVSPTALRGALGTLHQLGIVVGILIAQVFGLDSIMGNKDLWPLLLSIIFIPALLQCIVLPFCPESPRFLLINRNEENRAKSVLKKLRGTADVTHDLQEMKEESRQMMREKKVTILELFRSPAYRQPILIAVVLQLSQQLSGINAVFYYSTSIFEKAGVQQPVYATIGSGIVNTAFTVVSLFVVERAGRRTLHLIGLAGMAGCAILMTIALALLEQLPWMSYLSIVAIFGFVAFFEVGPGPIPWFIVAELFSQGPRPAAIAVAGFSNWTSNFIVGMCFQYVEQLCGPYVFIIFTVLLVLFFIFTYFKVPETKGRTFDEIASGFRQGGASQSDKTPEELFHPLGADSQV
As to the kind of experiment: biotin-RgA pull-down and biotin probe competition binding assay, GLUT1. As to conditions: competition with 100 nM biotin-RgA probe, HEK293T GLUT1 lysate, Western blot densitometry; read-out: estimated Kd for GLUT1. How it is done:
Next, the binding affinity of RgA for GLUT1 was determined using a RgA biotin pull-down assay. A biotin-RgA conjugate was synthesized by tethering the biotin moiety through carbon:carbon double bond in the FKBP-binding domain of RgA (FIG. 13). […] Using the biotin-RgA conjugate, a pulldown experiment with cell lysate containing detergent-solubilized GLUT1 protein prepared from HEK293T cells overexpressing GLUT1 was performed, followed by Western blot analysis with a GLUT1-specific antibody.
The estimation of Kd value for RgA was determined with the biotin probe competition binding assay. […] After western blot, band intensities were quantified by densitometry analysis using Image J software. The assay was repeated three times. GraphPad Prism (v4.03) software was used to determine apparent Kd value for RgA using a nonlinear regression.

In another test the test system is MCF-7 cells. The test is described as follows: LC/MS metabolite profiling of MCF-7 cells. The class given is cell-based, human. On the procedure:
To understand the metabolic impact of GLUT inhibition by RgA, the steady-state levels of 272 metabolites was determined using LC/MS, Liu et al, Anal. Chem. 2014, 86, 2175-2184, in MCF-7 cells upon treatment with RgA for 30 min and 6 h, respectively.
MCF-7 Cells were seeded into 6-well plate at a density of 5×10^5 cells per well, allowed to recover overnight and subsequently treated with RgA or vehicle control for 30 min and 6 h, respectively. Metabolites were extracted and analyzed as previously described. Liu et al., Anal. Chem. 2014, 86, 2175-2184.

Setting [2] is: MCF-7, 30 min and 6 h treatment.

For orientation: Kd means a measure of binding affinity in units of concentration. `CCC(C)C1C(=O)NCC(=O)N(C)CCC=CC(=O)OCC(C)(C)C(=O)C(=O)N2CCCCC2C(=O)OC(CCc2ccc(OC)c(OC)c2)c2cccc(c2)NC(=O)CCC(=O)N(C)C(CC(C)C)C(=O)NC(Cc2ccccc2)C(=O)N1C` (centres unmarked) [JW11-D2, Rapaglutin A]: the IC50 is 109 nM in the test on HCC1954, 132 nM in the test with Jurkat T, 114 nM in the test on RKO and 49.5 nM in test [1]. The Kd on GLUT1 is 78 nM. Also, the “cellular ATP level and AMP/ATP ratio” value in the test with MCF-7 cells (MCF-7) is “increase in the AMP/ATP ratio”. Further, the “TCA cycle and redox status” value in the test with MCF-7 cells (setting [2]) is listed as “not significantly affected”. Further, the “upper glycolytic and pentose phosphate pathway intermediates (G6P, F1,6-BP, DHAP, 6PGA, R5P, E4P)” value with MCF-7 cells (setting [2]) was “significant decreases”.
